Values of other authors, collected in patent US20240156825A1, “USE OF SELECTIVE VEGFR2 AND FGFR1 INHIBITORS” (Fountain Therapeutics Inc., priority 2022, published 2024).
Read-outs that look alike come from different tables or passages of the source.

Assays:
any gene target = details: next lowest IC50 value to any gene target, read-out: Min IC50_μM, cited from earlier work
VEGFR2 = VEGFR2 (Homo sapiens, UniProt P35968); details: reported IC50 to VEGFR2, read-out: VEGFR2 IC50_μM, cited from earlier work
Sequence of VEGFR2 (P35968 20-1356, species assumed): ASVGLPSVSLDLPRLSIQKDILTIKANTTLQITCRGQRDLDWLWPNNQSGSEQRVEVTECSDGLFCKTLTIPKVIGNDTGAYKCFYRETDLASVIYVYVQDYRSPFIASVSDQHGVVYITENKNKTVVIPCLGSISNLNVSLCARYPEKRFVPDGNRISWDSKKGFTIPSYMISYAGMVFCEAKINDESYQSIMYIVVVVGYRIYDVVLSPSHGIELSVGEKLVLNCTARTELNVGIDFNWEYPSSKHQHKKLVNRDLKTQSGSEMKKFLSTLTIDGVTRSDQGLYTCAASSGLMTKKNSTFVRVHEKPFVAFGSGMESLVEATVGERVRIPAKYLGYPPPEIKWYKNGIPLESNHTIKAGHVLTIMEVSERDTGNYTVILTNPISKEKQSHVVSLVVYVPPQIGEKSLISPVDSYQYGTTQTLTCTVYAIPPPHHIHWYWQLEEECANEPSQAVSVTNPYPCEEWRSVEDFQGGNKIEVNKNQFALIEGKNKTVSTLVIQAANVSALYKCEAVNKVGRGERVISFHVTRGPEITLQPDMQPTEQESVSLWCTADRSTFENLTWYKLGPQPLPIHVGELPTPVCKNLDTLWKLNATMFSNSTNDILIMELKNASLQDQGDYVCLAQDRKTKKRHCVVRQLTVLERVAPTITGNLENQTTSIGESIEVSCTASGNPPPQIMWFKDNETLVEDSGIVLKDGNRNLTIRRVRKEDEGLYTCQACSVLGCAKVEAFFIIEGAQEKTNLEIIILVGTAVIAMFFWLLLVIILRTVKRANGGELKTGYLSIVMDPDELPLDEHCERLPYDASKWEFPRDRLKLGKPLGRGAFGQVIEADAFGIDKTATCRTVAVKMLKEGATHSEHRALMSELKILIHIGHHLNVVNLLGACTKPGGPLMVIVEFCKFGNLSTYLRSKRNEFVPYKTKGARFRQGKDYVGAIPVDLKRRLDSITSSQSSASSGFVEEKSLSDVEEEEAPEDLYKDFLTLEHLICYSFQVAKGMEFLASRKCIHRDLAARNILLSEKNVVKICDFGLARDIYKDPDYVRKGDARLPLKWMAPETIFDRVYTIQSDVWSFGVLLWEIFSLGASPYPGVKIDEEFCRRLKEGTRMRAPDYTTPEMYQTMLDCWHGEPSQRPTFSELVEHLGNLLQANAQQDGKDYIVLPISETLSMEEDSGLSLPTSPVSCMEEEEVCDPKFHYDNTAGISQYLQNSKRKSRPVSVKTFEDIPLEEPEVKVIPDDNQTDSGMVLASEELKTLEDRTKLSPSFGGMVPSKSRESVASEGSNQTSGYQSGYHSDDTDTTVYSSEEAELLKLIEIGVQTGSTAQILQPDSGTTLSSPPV

[1] = Table 3, selective inhibitors of VEGFR2

| Structure (SMILES) | IC50 (any gene target) [nM] | IC50 (VEGFR2) [nM] | IC50 (any gene target; Table 3) [nM] | IC50 (VEGFR2; [1]) [nM] |
| --- | --- | --- | --- | --- |
| C[C@@H](Nc1ncnc2[nH]c(-c3ccc(CN4CCN(CCCCCCC(=O)NO)CC4)cc3)cc12)c1ccccc1 [compound 24900443] | 100 | 100 | – | – |
| CC(C)(Nc1nc(NO)nc(Nc2ccc3ncsc3c2)n1)c1ccccc1 [compound 10249989] | 420 | 40 | – | – |
| COc1cc2c(Nc3ccc(Cl)cc3F)ncnc2cc1OC[C@@H]1CCCN(C)C1 [compound 5329055] | 80 | 5 | – | – |
| COc1cc2c(Nc3ccc(Cl)c(Cl)c3)ncnc2cc1OCC1CN(C)C(C)(C)C(=O)O1 (stereo not shown) [compound 57802818] | – | – | 50 | 50 |
| CNC(=O)Nc1ccc(CNc2ncsc2C(=O)Nc2ccc3c(c2)OC(F)(F)O3)cn1 [compound 44442418] | 5 | 3 | – | – |
| COc1cc2nccc(Oc3ccc4c(C(=O)NC(C)C)cccc4c3)c2cc1OC [compound 24822600] | 190 | 5 | – | – |
| O=C(CSC(=S)N1CCCCC1)Nc1cccc(NC(=O)c2ccccn2)c1 [compound 155562216] | 84 | 27 | – | – |
| CCN1CCN(Cc2ccc(NC(=O)c3ccc(C)c(NC(=O)c4cncc(-c5cccs5)c4)c3)cc2C(F)(F)F)CC1 [compound 42628503] | – | – | 500 | 500 |
| COc1cc2c(Nc3cc(O)c(Cl)cc3F)ncnc2cc1OCC1CCN(C)CC1 [compound 73357210] | – | – | 3 | 3 |
| Cc1ccc(C(=O)Nc2cccc(C(F)(F)F)c2)cc1Nc1nc2ccccc2n1-c1cc(NCCC#N)ncn1 [compound 46879446] | 275 | 245 | – | – |
| COc1cc2c(Nc3cc(Cl)c(Br)cc3F)ncnc2cc1OCC1CN(C)C(C)(C)CO1 (stereo not shown) [compound 57802776] | 50 | 50 | – | – |
| COCn1cc(C2=C(c3cc(OC)c(OC)c(OC)c3)C(=O)NC2)c2ccccc21 [compound 24894887] | 3200 | 2300 | – | – |
| COc1cc2c(Nc3ccc(Cl)c(Cl)c3)ncnc2cc1OCc1cscn1 [compound 10455540] | – | – | 50 | 50 |
| COc1cc2c(Nc3cc(Cl)c(Cl)cc3F)ncnc2cc1OCC1CN(C)CCO1 (stereo not shown) [compound 57802547] | – | – | 50 | 50 |
| COc1cc2c(Nc3ccc(Cl)cc3F)ncnc2cc1OCCCN1CCN(C)CC1 [compound 21701597] | 50 | 20 | – | – |
| O=C(CCCCCCCNCc1cc(Oc2ccc(NC(=O)Nc3ccc(Cl)c(C(F)(F)F)c3)cc2)ccn1)NO [compound 25072218] | 100 | 100 | – | – |
| c1ccc2sc(-c3ccc(Nc4ncnc5[nH]ccc45)cc3)nc2c1 [compound 44564789] | 1300 | 1200 | – | – |
| COc1cc2c(Nc3ccc(C)c(Br)c3)ncnc2cc1OCC1CN(C)CCO1 (stereo not shown) [compound 57802550] | – | – | 50 | 50 |
| Oc1cc(O)c2cc(O)c(-c3cc(O)c(O)c(O)c3)[o+]c2c1 [compound 68245] | 6.27 | 5.09 | – | – |
| COCCOc1cc2ncnc(Nc3ccc(Cl)cc3F)c2cc1OC [compound 5329011] | 40 | 7 | – | – |
| COc1cc2c(Nc3ccc(Cl)cc3F)ncnc2cc1OCCN1CCOCC1 [compound 5329019] | 300 | 40 | – | – |

| Structure (SMILES) | IC50 (any gene target) [nM] | IC50 (VEGFR2) [nM] | IC50 (any gene target; Table 3) [nM] | IC50 (VEGFR2; [1]) [nM] |
| --- | --- | --- | --- | --- |
| COc1cc2nccc(Oc3ccc4c(C(=O)NC5CCCC5)cccc4c3)c2cc1OC [compound 24822599] | 620 | 9 | – | – |
| COc1cc2c(Nc3ccc(Cl)c(Cl)c3)ncnc2cc1OCC1CN(C)C(C)(C)CO1 (stereo not shown) [compound 57802660] | 50 | 50 | – | – |
| COc1cc2c(Nc3ccc(F)c(Cl)c3F)ncnc2cc1OC[C@H]1CN2CCOC[C@H]2CO1 [compound 10028639] | – | – | 50 | 50 |
| c1cnc(NCc2ccncc2)c(-c2nnc(Nc3ccc4c(c3)OCCO4)o2)c1 [compound 44408215] | 29900 | 170 | – | – |
| COc1cc2c(Nc3ccc(Br)c(Cl)c3F)ncnc2cc1OC[C@@H]1CN(C)CC(=O)N1 [compound 57802892] | – | – | 50 | 50 |
| CN1CC(=Cc2ccccn2)C(=O)C(=Cc2ccccn2)C1 [compound 2132479] | 1900 | 1300 | – | – |
| COc1cc2c(Nc3ccc(Br)c(Cl)c3F)ncnc2cc1OC[C@@H]1CN2CCOC[C@H]2CO1 [compound 9937516] | – | – | 50 | 50 |
| COc1cc2c(Nc3ccc(Br)cc3F)ncnc2cc1OCCCN1CCN(C)CC1 [compound 49860190] | 30 | 9 | – | – |
| COc1cc2c(Nc3ccc(Cl)c(Cl)c3)ncnc2cc1OCC1CN(C(=O)c2cccnc2Cl)CCO1 (stereo not shown) [compound 57802694] | 50 | 50 | – | – |
| COc1cc2c(Nc3ccc(Br)c(Cl)c3Cl)ncnc2cc1OC[C@@H]1CN2CCC[C@H]2CO1 [compound 57802722] | 50 | 50 | – | – |
| COc1cc2c(Nc3ccc(Cl)c(Cl)c3)ncnc2cc1OCc1nc(N2CCN(C)CC2)no1 [compound 57802605] | – | – | 50 | 50 |
| c1ccc(-c2cnn3cc(-c4ccc(OCCN5CCOCC5)cc4)cnc23)cc1 [compound 5329447] | 32 | 9 | – | – |
| COc1cc2c(Nc3ccc(Cl)c(Cl)c3F)ncnc2cc1OC[C@@H]1CN2CCC[C@H]2C(=O)N1 [compound 53630923] | – | – | 50 | 50 |
| COc1cc2c(Nc3ccc(Br)c(Cl)c3F)ncnc2cc1O[C@@H]1C[C@H]2OC[C@H](OC)[C@H]2O1 [compound 134155171] | – | – | 50 | 50 |
| C[C@@H](Nc1ncnc2[nH]c(-c3ccc(CNCc4ccc(C(=O)NO)cc4)cc3)cc12)c1ccccc1 [compound 59756709] | – | – | 100 | 100 |
| C[C@@H](Nc1ncnc2[nH]c(-c3ccc(CN4CCN(CCCC(=O)NO)CC4)cc3)cc12)c1ccccc1 [compound 24900378] | 1000 | 100 | – | – |
| COc1cc2c(Nc3ccc(Cl)c(Cl)c3)ncnc2cc1OC[C@@H]1CN2CCC[C@H]2CO1 [compound 57802678] | 50 | 50 | – | – |
| COc1cc2c(Nc3ccc(Cl)c(Cl)c3)ncnc2cc1OCC1CN2CSC[C@H]2CO1 (stereo partly shown) [compound 57802698] | 50 | 50 | – | – |
| COc1cc2c(Nc3ccc(Cl)cc3F)ncnc2cc1OCCCN1CCCC1 [compound 73352657] | – | – | 8 | 8 |
| COc1cc2c(Nc3cc(Cl)c(Cl)cc3F)ncnc2cc1OC[C@@H]1CN2CCC[C@H]2CO1 [compound 53630919] | – | – | 50 | 50 |
| COc1cc2c(Nc3ccc(Cl)c(Cl)c3F)ncnc2cc1OC[C@@H]1CN2CCC[C@H]2C(=O)N1C [compound 53630920] | – | – | 50 | 50 |

| Structure (SMILES) | IC50 (any gene target) [nM] | IC50 (VEGFR2) [nM] | IC50 (any gene target; Table 3) [nM] | IC50 (VEGFR2; [1]) [nM] |
| --- | --- | --- | --- | --- |
| COc1cc(C2=C(c3c[nH]c4ccccc34)C(=O)NC2=O)cc(OC)c1OC [compound 11530963] | 5 | 2.5 | – | – |
| COc1cc2nccc(Oc3ccc4c(C(=O)NC(C)(C)C)cccc4c3)c2cc1OC [compound 24823091] | 3700 | 1500 | – | – |
| Cn1ccc2ncnc(Oc3ccc(NC(=O)Nc4cccc(C(F)(F)F)c4)c(F)c3)c21 [compound 15949613] | 15 | 0.033 | – | – |
| COc1ccc(-c2cnc3cncc(Nc4ccc(N5CCCCC5)cc4)c3n2)cc1 [compound 57332844] | 2270 | 2050 | – | – |
| Cc1cn2c(-c3cn[nH]c3)cnc2c(Nc2cc(CN3CCCCC3)ns2)n1 [compound 25144294] | 12 | 4 | – | – |
| COc1cc2c(Nc3ccc(Br)cc3F)ncnc2cc1OCCC1CCN(C)CC1 [compound 5329053] | 60 | 6 | – | – |
| COc1cc2c(Nc3ccc(Br)c(Cl)c3C)ncnc2cc1OCC1CN(C)CCO1 (stereo not shown) [compound 57802867] | – | – | 50 | 50 |
| COc1cc(O)c2c(c1)CCC[C@H](O)CC(=O)/C=C\C[C@H](C)OC2=O [compound 53324451] | 7.23 | 5.8 | – | – |
| COCCOc1cc2ncnc(Nc3cc(O)c(Cl)cc3F)c2cc1OC [compound 5329013] | – | – | 2 | 2 |
| COCCNC(=O)c1cccc2cc(Oc3ccnc4cc(OC)c(OC)cc34)ccc12 [compound 11362483] | 73 | 12 | – | – |
| COc1cc2c(Nc3ccc(Br)cc3F)ncnc2cc1OC[C@@H]1CCCN(C)C1 [compound 5329056] | 60 | 1 | – | – |
| CCCCN1CCOC(COc2cc3ncnc(Nc4ccc(Cl)c(Cl)c4)c3cc2OC)C1 (stereo not shown) [compound 57802833] | – | – | 50 | 50 |
| COc1cc2c(Nc3c(F)cc(Br)cc3F)ncnc2cc1OCC1CCNCC1 [compound 5329051] | 70 | 15 | – | – |
| COc1cc2c(Nc3ccc(Cl)c(Cl)c3)ncnc2cc1OCC1CN(CC(N)=O)CCO1 (stereo not shown) [compound 57802603] | – | – | 50 | 50 |
| COc1cc(C2=C(c3cn(COCc4ccccc4)c4ccccc34)CNC2=O)cc(OC)c1OC [compound 24894993] | 1700 | 1600 | – | – |
| COc1cc2c(Nc3ccc(Cl)c(Cl)c3)ncnc2cc1OCCC1CN(C)CC(C)(C)O1 (stereo not shown) [compound 57802732] | 50 | 50 | – | – |
| COc1cc2c(Nc3ccc(Cl)c(Cl)c3F)ncnc2cc1OCC1CN(C)C(C)(C)CO1 (stereo not shown) [compound 57802653] | 50 | 50 | – | – |
| CN1CCC(COc2ccc3c(Nc4ccc(NC(=O)Nc5cccc(F)c5)cc4)ncnc3c2)CC1 [compound 56835147] | 9.6 | 5.5 | – | – |
| O=C(Nc1ccccc1)Nc1ccc2c(c1)NC(=O)/C2=C\c1ccc[nH]1 [compound 46182735] | 2.3 | 1 | – | – |
| COc1cc2c(Nc3cc(Cl)c(Cl)cc3F)ncnc2cc1OC[C@@H]1CN2CCOC[C@H]2CO1 [compound 66838463] | – | – | 50 | 50 |
